Test system: patients with prior myocardial infarction (CARE study)
Assay: CARE: association of SNPs with pravastatin treatment in cardiovascular events prevention (logistic regression, odds ratio pravastatin vs placebo by genotype; Table 8)
Assay type: in vivo, human
Conditions: for Fatal CHD/Definite Nonfatal MI, n/total (%) / Fatal/Nonfatal MI (def & prob), n/total (%) / MI (Fatal/Nonfatal), n/total (%) / Nonfatal MI (Probable/Definite), n/total (%) / Nonfatal MI (def & prob), n/total (%): GAPD hCV8921288, All Patients
Text: In order to identify genetic markers associated with acute coronary events (e.g. MI, stroke, unstable angina, congestive heart failure, etc.) or response to statin treatment for the prevention of coronary events, samples from the Cholesterol and Recurrent Events (CARE) study (a randomized multicentral double-blinded trial on secondary prevention of acute coronary events with pravastatin) (Sacks et al., 1991, Am. J. Cardiol. 68: 1436-1446) were genotyped. A well-documented myocardial infarction (MI) was one of the enrollment criteria for entry into the CARE study. Patients were enrolled in the CARE trial from 80 participating study centers. […] Patients were randomized to receive either 40 mg of pravastatin once daily or a matching placebo. The primary endpoint of the trial was death from coronary heart disease and the median duration of follow-up was 5.0 years (range, 4.0 to 6.2 years). […] Secondary endpoints of other related cardiovascular or metabolic disease events, and changes in clinical variables were also recorded in pravastatin-treated and placebo groups. All individuals included in the study had signed a written informed consent form and the study protocol was approved by the respective Institutional Review Boards (IRBs).
For genotyping SNPs in CARE patient samples, DNA was extracted from blood samples using conventional DNA extraction methods such as the QIA-amp kit from Qiagen. Genotypes were obtained on an ABI PRISM® 7900HT Sequence Detection PCR system (Applied Biosystems, Foster City, Calif.) by kinetic allele-specific PCR, similar to the method described by Germer et al. (Germer S., Holland M. J., Higuchi R. 2000, Genome Res. 10: 258-266).
Statistical analysis for association of SNPs with pravastatin treatment in cardiovascular events prevention (Table 8) was carried out using an overall logistic regression model that included an intercept, a parameter for the effect of a genotype containing two rare alleles versus a genotype containing no rare alleles, a parameter for the effect of a genotype containing one rare allele versus a genotype containing no rare alleles, a parameter for the effect of use of pravastatin versus the use of placebo, and parameters for the interaction effects between SNP genotypes and pravastatin use. The test of the overall model is a chi-square test with two degrees of freedom for analyses containing all three genotypes, and one degree of freedom for analyses containing two genotypes.
Effect sizes were estimated through odds ratios (pravastatin group versus placebo) for carriers of each genotype (groups of 0, 1, and 2 minor allele carriers). The effect was considered to be significant if p-value for testing whether any of the interactions between SNP genotypes and pravastatin use were <0.05. […] Odds ratios less than one indicate that the specific SNP allele has a protective effect and odds ratios greater than one indicate that the specific SNP allele has an adverse effect.

[1] = ELN hCV1253630, All Patients, Fatal CHD/Definite Non-fatal MI
[2] = ELN hCV1253630, All Patients, Fatal/Non-fatal MI (def & prob)
[3] = ELN hCV1253630, All Patients, Hosp. for Cardiovascular Disease
[4] = ELN hCV1253630, All Patients, Non-fatal MI (def & prob)
[5] = ELN hCV1253630, All Patients, Total Cardiovascular Disease Events
[6] = ELN hCV1253630, All Patients, Total Coronary Heart Disease Events
[7] = FCGR2A hCV9077561, All Patients, 0 Rare Alleles, Prava arm
[8] = FCGR2A hCV9077561, All Patients, 1 Rare Allele, Prava arm
[9] = FCGR2A hCV9077561, All Patients, 2 Rare Alleles, Prava arm
[10] = HLA-DPA1 hCV15760070, All Patients, Coronary Artery Bypass or Revascularization
[11] = HLA-DPA1 hCV15760070, All Patients, Total Coronary Heart Disease Events

In the case of `CC[C@H](C)C(=O)O[C@H]1C[C@H](O)C=C2C=C[C@H](C)[C@H](CC[C@@H](O)C[C@@H](O)CC(=O)O)[C@H]21` [pravastatin], the “Fatal CHD/Definite Non-fatal MI, n/total (%)” value (ELN hCV1253630, All Patients, 2 Rare Alleles, Prava, n/total 29/245) is reported as “(11.8%)”, the “Non-fatal MI (def & prob), n/total (%)” value (ELN hCV1253630, All Patients, 2 Rare Alleles, Prava, n/total 30/245) is reported as “(12.2%)” and the “Fatal/Non-fatal MI (def & prob), n/total (%)” value (ELN hCV1253630, All Patients, 2 Rare Alleles, Prava, n/total 33/245) is reported as “(13.5%)”. For the same molecule, the “Total Coronary Heart Disease Events, n/total (%)” value (ELN hCV1253630, All Patients, 2 Rare Alleles, Prava, n/total 88/245) was “(35.9%)”, the “Hosp. for Cardiovascular Disease, n/total (%)” value (ELN hCV1253630, All Patients, 2 Rare Alleles, Prava, n/total 113/245) was “(46.1%)” and the “Total Cardiovascular Disease Events, n/total (%)” value (ELN hCV1253630, All Patients, 2 Rare Alleles, Prava, n/total 115/245) was “(46.9%)”. For the same molecule, the “Prava vs. Placebo Odds Ratio, 0 Rare Alleles” value [1] was 0.50, the “Prava vs. Placebo Odds Ratio, 1 Rare Alleles” value [1] was 0.75 and the “Prava vs. Placebo Odds Ratio, 2 Rare Alleles” value [1] was 1.41. For the same molecule, the “Prava vs. Placebo Odds Ratio, 0 Rare Alleles” value [2] was 0.44, the “Prava vs. Placebo Odds Ratio, 1 Rare Alleles” value [2] was 0.68 and the “Prava vs. Placebo Odds Ratio, 2 Rare Alleles” value [2] was 1.63. The “Prava vs. Placebo Odds Ratio, 0 Rare Alleles” value [3] was 0.63, the “Prava vs. Placebo Odds Ratio, 1 Rare Alleles” value [3] was 0.76 and the “Prava vs. Placebo Odds Ratio, 2 Rare Alleles” value [3] was 1.15. The “Prava vs. Placebo Odds Ratio, 0 Rare Alleles” value [4] was 0.50, the “Prava vs. Placebo Odds Ratio, 1 Rare Alleles” value [4] was 0.67 and the “Prava vs. Placebo Odds Ratio, 2 Rare Alleles” value [4] was 1.63. The “Prava vs. Placebo Odds Ratio, 0 Rare Alleles” value [5] was 0.63, the “Prava vs. Placebo Odds Ratio, 1 Rare Alleles” value [5] was 0.75 and the “Prava vs. Placebo Odds Ratio, 2 Rare Alleles” value [5] was 1.11. For the same molecule, the “Prava vs. Placebo Odds Ratio, 0 Rare Alleles” value [6] was 0.66, the “Prava vs. Placebo Odds Ratio, 1 Rare Alleles” value [6] was 0.73 and the “Prava vs. Placebo Odds Ratio, 2 Rare Alleles” value [6] was 1.26. For the same molecule, the “Catheterization, n/total (%)” value [7] was “(11.6%)”, the “Coronary Artery Bypass or Revascularization, n/total (%)” value [7] was “(16.1%)” and the “Catheterization, n/total (%)” value [8] was “(11.2%)”. For the same molecule, the “Coronary Artery Bypass or Revascularization, n/total (%)” value [8] was “(14.8%)”, the “Catheterization, n/total (%)” value [9] was “(6.8%)” and the “Coronary Artery Bypass or Revascularization, n/total (%)” value [9] was “(11.8%)”. The “Fatal CHD/Definite Nonfatal MI, n/total (%)” value (0 Rare Alleles, Prava arm) was “(10.5%)”, the “Fatal/Nonfatal MI (def & prob), n/total (%)” value (shortened to “Fatal/Nonfatal MI … (%)”) (0 Rare Alleles, Prava arm) was “(10.6%)” and the “MI (Fatal/Nonfatal), n/total (%)” value (0 Rare Alleles, Prava arm) was “(10.9%)”. The “Nonfatal MI (Probable/Definite), n/total (%)” value (0 Rare Alleles, Prava arm) was “(10.3%)”, the “Nonfatal MI (def & prob), n/total (%)” value (0 Rare Alleles, Prava arm) was “(9.9%)” and the “Fatal CHD/Definite Nonfatal MI, n/total (%)” value (1 Rare Allele, Prava arm) was “(7.4%)”. The “Fatal/Nonfatal MI … (%)” value (1 Rare Allele, Prava arm) was “(8.7%)”, the “MI (Fatal/Nonfatal), n/total (%)” value (1 Rare Allele, Prava arm) was “(8.7%)” and the “Nonfatal MI (Probable/Definite), n/total (%)” value (1 Rare Allele, Prava arm) was “(8.1%)”. The “Nonfatal MI (def & prob), n/total (%)” value (1 Rare Allele, Prava arm) was “(7.6%)”, the “Fatal CHD/Definite Nonfatal MI, n/total (%)” value (2 Rare Alleles, Prava arm) was “(8.1%)” and the “Fatal/Nonfatal MI … (%)” value (2 Rare Alleles, Prava arm) was “(6.5%)”. The “MI (Fatal/Nonfatal), n/total (%)” value (2 Rare Alleles, Prava arm) was “(6.5%)”, the “Nonfatal MI (Probable/Definite), n/total (%)” value (2 Rare Alleles, Prava arm) was “(6.5%)” and the “Nonfatal MI (def & prob), n/total (%)” value (2 Rare Alleles, Prava arm) was “(4.8%)”. The “Coronary Artery Bypass or Revascularization, n/total (%)” value (HLA-DPA1 hCV15760070, All Patients, 0 Rare Alleles, Prava, n/total 143/1019) was “(14.0%)”, the “Total Coronary Heart Disease Events, n/total (%)” value (HLA-DPA1 hCV15760070, All Patients, 0 Rare Alleles, Prava, n/total 285/1019) was “(28.0%)” and the “Coronary Artery Bypass or Revascularization, n/total (%)” value (HLA-DPA1 hCV15760070, All Patients, 1 Rare Allele, Prava, n/total 67/443) was “(15.1%)”. For the same molecule, the “Total Coronary Heart Disease Events, n/total (%)” value (HLA-DPA1 hCV15760070, All Patients, 1 Rare Allele, Prava, n/total 136/443) was “(30.7%)”, the “Coronary Artery Bypass or Revascularization, n/total (%)” value (HLA-DPA1 hCV15760070, All Patients, 2 Rare Alleles, Prava, n/total 9/52) was “(17.3%)” and the “Total Coronary Heart Disease Events, n/total (%)” value (HLA-DPA1 hCV15760070, All Patients, 2 Rare Alleles, Prava, n/total 21/52) was “(40.4%)”. For the same molecule, the “Prava vs. Placebo Odds Ratio, 0 Rare Alleles” value [10] was 0.65, the “Prava vs. Placebo Odds Ratio, 1 Rare Alleles” value [10] was 0.71 and the “Prava vs. Placebo Odds Ratio, 2 Rare Alleles” value [10] was 5.65. For the same molecule, the “Prava vs. Placebo Odds Ratio, 0 Rare Alleles” value [11] was 0.69, the “Prava vs. Placebo Odds Ratio, 1 Rare Alleles” value [11] was 0.86 and the “Prava vs. Placebo Odds Ratio, 2 Rare Alleles” value [11] was 2.48. The “Fatal/Non-fatal MI (def & prob), n/total (%)” value (HLA-DPB1 hCV8851085, All Patients, 0 Rare Alleles, Prava, n/total 82/919) was “(8.9%)”.

— patent US9932637B2, “Genetic polymorphisms associated with cardiovascular disorders and drug response, methods of detection and uses thereof” (CELERA CORPORATION, priority 2003, dated 2018)
